Measured values reported in patent US5424185A, “Human high-affinity neurotransmitter uptake system” (Baylor College of Medicine, priority 1990, dated 1995).
Read-outs that look alike come from different tables or passages of the source.

Key:
[1] = test system: GABA transporter (L-GAB1 cells); assay: [3H]GABA uptake by L-GAB1 cells; format: cell-based, human; conditions: for ligand-specificity of [3H]GABA uptake by L-GAB1 cells: competitor at 100-fold excess relative to [3H]GABA; for effect of GABA uptake inhibitors on [3H]GABA uptake by L-GAB1 cells: inhibitor 1 to 100 μM
Procedure: Using concentrations of [^3 H] GABA ranging from 2 to 500 μM, the kinetic profile of GABA uptake was determined for both L-GAB1 and L-M cells. The initial velocity of GABA uptake was measured and plotted against the corresponding [^3 H] GABA concentration for both cell lines. […] The velocity profile for L-GAB1 cells was subtracted by that of L-M cells, and the resulting data used for a double-reciprocal plot of velocity-^1 against GABA concentration-^1. The velocity profile for L-M cells was also transformed into a double-reciprocal plot.
Several known inhibitors of high-affinity GABA uptake were used to examine their efficacies in inhibiting [^3 H] GABA uptake by L-GAB1 cells. […] Each of these agents was used at several concentrations ranging from 1 to 100 μM in assays of [^3 H] GABA uptake by L-GAB1 cells. […] GABA uptake by L-GAB1 cells.
L-GAB1 cells were also analyzed in terms of their ligand-specificity in the high-affinity GABA uptake mechanism.

[2] = test system: human L-glutamate transporter (L-Glul cells); assay: L-[3H]glutamate uptake by L-Glul cells; format: cell-based; conditions: unlabelled neurotransmitters, EAA receptor ligands, co-transporter inhibitors
Procedure: Both L-Glul and L-M cells were assessed for their kinetic properties of [^3 H] Glu uptake, and the results were analyzed by fitting to Michaelis-Menten kinetics. This was done by incubating cells with differing concentrations of [^3 H] Glu (ranging from 0.05 to 2 μM) for 10 minutes, at both 37° C. and 0° C. The amount of [^3 H] Glu retained by the cells following incubation was then quantitated and converted (using the manufacturer's specific activity for [^3 H] Glu to the corresponding picomole-equivalent of the radioligand, for each concentration of radioligand at each temperature. Then, the pmol value is normalized by the length of incubation and the amount of protein corresponding to the number of cells assayed. The resulting value, expressed in units of pmol/min/mg protein, is the initial velocity value for each concentration of [^3 H] Glu at each temperature. The initial velocity measured at 37° C. represents total initial velocity; the initial velocity measured at 0° C. represents nonspecific initial velocity. The difference between these two velocity values is then the specific initial velocity, denoted by "V", for each concentration of [^3 H] Glu.
Various drugs specific for excitatory amino acid (EAA) receptor subtypes were assessed for their effects on [^3 H] Glu uptake by L-Glul cells.
Glu uptake by L-Glul cells.

[3] = test system: aspartate/glutamate co-transport system (L-Aspl cells); assay: D-[3H]aspartate uptake by L-Aspl cells; format: cell-based, human
Procedure: Kinetic analyses of D-[^3 H] […] Asp. […] Asp uptake.
The specificity of the high-affinity transport mechanism in L-Aspl cells also was examined. […] Asp.
The high-affinity transport system in L-Aspl cells was also analyzed in terms of its relative sensitivity to compounds specific for various subtypes of excitatory amino acid (EAA) receptors.
A series of known inhibitors of high-affinity D-Asp uptake systems (including L-cysteic acid (L-CA), L-cysteine sulfinic acid (L-CSA), aminophosphonoproprionic acid (APPA) and D-threoaspartic acid (THAA)) were also tested for their effects on D-[^3 H] Asp uptake by L-Aspl cells.

[4] = test system: neuronal and glial GABA uptake systems in the CNS; conditions: neuronal and glial uptake systems, literature; read-out: IC50, high-affinity GABA uptake in the CNS; cited from earlier work
Rat Synaptosomes = conditions: literature values; read-out: Representative IC50, Rat Synaptosomes; cited from earlier work
[5] = biological target: T1, human 5HT transporter (L-S1 cells) (Homo sapiens, UniProt P31645); assay: [3H]-5-HT uptake by L-S1 cells; format: cell-based
T1 construct: expressed in transfected cells; host or cells: mouse L-M fibroblasts (ATCC CCL 1.2) transfected with total human genomic DNA and pSV2neo; clone L-S1
Procedure: The cells were incubated at 37° C. for an additional 40 min.
L-S1 and L-M cells were preplated into 96-well culture plates. For uptake assays, the growth medium was removed from each well and the cells rinsed several times with oxygenated Ringer's buffer supplemented with 0.5 mM pargyline and 0.5 mM ascorbate. […] […] […] The cells remaining in the wells were lysed with 1% sodium dodecyl sulphate (SDS) and transferred to counting vials containing 5 ml of ACS scintillant (Amersham), for liquid scintillation spectrometry. For each assay, 6-8 parallel sets of wells were assayed simultaneously.
(§1) Non-specific activity was determined from parallel assays carried out at 0° C. Initial velocities were calculated in terms of pmol/mg protein/min by subtracting velocity values obtained at 0° C. from those obtained at 37° C.
(§2) Cells were assayed in the presence of each inhibitor for 40 minutes at 37° C., washed with Ringer's buffer and prepared for counting as previously described. Five confluent wells were assayed at each inhibitor concentration. The IC50 value for each inhibitor was determined by plotting the percent activity against the logarithm of inhibitor concentration. Measured levels of uptake in the presence of inhibitors were expressed as the percentage of maximal uptake (100 %) in the absence of inhibitor.

[6] = biological target: T2, human 5HT transporter (L-S2 cells) (Homo sapiens, UniProt P31645); assay: [3H]-5-HT uptake by L-S2 cells; format: cell-based
T2 construct: expressed in transfected cells; host or cells: mouse L-M fibroblasts (ATCC CCL 1.2) transfected with total human genomic DNA and pSV2neo; clone L-S2
Procedure: L-S1 and L-M cells were preplated into 96-well culture plates. For uptake assays, the growth medium was removed from each well and the cells rinsed several times with oxygenated Ringer's buffer supplemented with 0.5 mM pargyline and 0.5 mM ascorbate. […] The radioligand was added to a final concentration of 0.1 μM and incubated with the cells at 37° C. for 40 minutes. The incubation mixture was then removed and each well was washed three times at room temperature with Ringer's buffer. The cells remaining in the wells were lysed with 1% sodium dodecyl sulphate (SDS) and transferred to counting vials containing 5 ml of ACS scintillant (Amersham), for liquid scintillation spectrometry. For each assay, 6-8 parallel sets of wells were assayed simultaneously.
as §1, §2

[7] = ligand 10 μM, 10 min preincubation, 0.1 μM [3H]-5HT, 40 min, 37° C. (FIG. 1)

T2 sequence (P31645 whole entry): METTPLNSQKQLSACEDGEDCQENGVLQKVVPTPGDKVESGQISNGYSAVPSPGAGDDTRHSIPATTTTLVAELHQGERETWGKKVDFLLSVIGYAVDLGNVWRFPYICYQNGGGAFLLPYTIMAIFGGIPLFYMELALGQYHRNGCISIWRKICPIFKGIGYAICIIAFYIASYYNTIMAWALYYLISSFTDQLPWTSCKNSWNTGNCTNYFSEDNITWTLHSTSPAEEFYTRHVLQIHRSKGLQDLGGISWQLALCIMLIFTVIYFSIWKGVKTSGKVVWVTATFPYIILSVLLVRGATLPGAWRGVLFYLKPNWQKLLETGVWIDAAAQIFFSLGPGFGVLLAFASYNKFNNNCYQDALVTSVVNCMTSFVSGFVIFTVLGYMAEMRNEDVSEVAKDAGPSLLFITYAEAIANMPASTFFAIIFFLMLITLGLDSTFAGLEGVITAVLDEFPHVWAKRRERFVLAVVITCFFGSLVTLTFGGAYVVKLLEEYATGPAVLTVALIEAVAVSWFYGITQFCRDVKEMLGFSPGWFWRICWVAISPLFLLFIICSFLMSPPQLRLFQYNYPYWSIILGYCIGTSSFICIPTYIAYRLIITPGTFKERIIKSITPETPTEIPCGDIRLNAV
T1 sequence (P31645 whole entry): as above

Molecule	effect on [3H]Glu uptake by L-Glul cells [2]	effect on D-[3H]Asp uptake by L-Aspl cells [3]	also measured
NCCCC[C@H](N)C(=O)O [lysine]			ligand-specificity of [3H]GABA uptake by L-GAB1 cells [1]: not sensitive
N[C@H](CCC(=O)NCS(=O)(=O)O)C(=O)O [GAMS]	without effect		
NC(CS(=O)O)C(=O)O (stereo not shown) [cysteine sulfinate]	no effect		
C=C(C)[C@H]1CN[C@H](C(=O)O)[C@H]1CC(=O)O [kainic acid]	without effect	significant inhibition	
O=C(O)C1=CCCNC1 [Guvacine]			effect of GABA uptake inhibitors on [3H]GABA uptake by L-GAB1 cells [1]: without measurable effect; IC50 [4]: 10 to 200 µM
NC(CCP(=O)(O)O)C(=O)O (stereo not shown) [AP4, 2-amino-4-phosphonobutyric acid]	without effect		
N[C@@H](Cn1oc(=O)[nH]c1=O)C(=O)O [quisqualate]	potent inhibitor	without effect	
O=C(O)C1CCCNC1 (racemic) [NA, (±)nipecotic acid]			inhibition of total [3H]GABA uptake by L-GAB1 cells ([1]; effect saturating by 100 μM): less than 20%; effect of GABA uptake inhibitors on [3H]GABA uptake by L-GAB1 cells [1]: some effect; IC50 [4]: 10 to 200 µM
N[C@H](C(=O)O)c1cc(=O)[nH]o1 [ibotenic acid]	without effect		
NC(CCCC(=O)O)C(=O)O (stereo not shown) [AAA, a-aminoadipic acid]		virtually without inhibitory effect	
N[C@@H](CS(=O)(=O)O)C(=O)O [L-CA, L-cysteic acid]		potent inhibitory effects	
N[C@@H](CCS(=O)(=O)O)C(=O)O [LHCA, L-homocysteic acid]		without effect	
N=C(N)NCCC[C@H](N)C(=O)O [L-arginine]			ligand-specificity of [3H]GABA uptake by L-GAB1 cells [1]: somewhat sensitive
N[C@@H](CO)C(=O)O [serine]			ligand-specificity of [3H]GABA uptake by L-GAB1 cells [1]: not sensitive
NC[C@H](O)c1ccc(O)c(O)c1 [Norepinephrine, norepinephrine]	only unlabelled L-glutamate seems to mediate some inhibition		ligand-specificity of [3H]GABA uptake by L-GAB1 cells [1]: not inhibited; IC50 (Rat Synaptosomes): > 10 µM
N[C@@H](C(=O)O)[C@@H](O)C(=O)O [THAA, D-threoaspartic acid]		potent inhibitory effects	
NC(CP(=O)(O)O)C(=O)O (stereo not shown) [APPA, aminophosphonoproprionic acid]		moderate in inhibitory potency	
NCCc1ccc(O)c(O)c1 [dopamine]	only unlabelled L-glutamate seems to mediate some inhibition		
dihydroxykainate		significant inhibition	

Molecule	effect on [3H]Glu uptake by L-Glul cells [2]	effect on D-[3H]Asp uptake by L-Aspl cells [3]	also measured
Cc1onc(O)c1CC(N)C(=O)O [AHMIP, D-amino-3-hydroxy-5-methyl-4-isoxazoneproprionic acid]	no inhibitory effect		
N[C@@H](Cc1c[nH]c2ccccc12)C(=O)O [tryptophan]			ligand-specificity of [3H]GABA uptake by L-GAB1 cells [1]: not sensitive; effect of competing ligand on [3H]-5HT uptake, L-S1 [5, 7]: Neither tryptophan, the amino acid precursor of serotonin, nor the amino acid substrates for catecholamine synthesis, phenylalanine and tyrosine, inhibited uptake of 5-HT; effect of competing ligand on [3H]-5HT uptake, L-S2 [6, 7]: Neither tryptophan, the amino acid precursor of serotonin, nor the amino acid substrates for catecholamine synthesis, phenylalanine and tyrosine, inhibited uptake of 5-HT
N[C@@H](Cc1ccc(O)cc1)C(=O)O [tyrosine]			ligand-specificity of [3H]GABA uptake by L-GAB1 cells [1]: not sensitive; effect of competing ligand on [3H]-5HT uptake, L-S1 [5]: nor the amino acid substrates for catecholamine synthesis, phenylalanine and tyrosine, inhibited uptake of 5-HT; effect of competing ligand on [3H]-5HT uptake, L-S2 [6]: nor the amino acid substrates for catecholamine synthesis, phenylalanine and tyrosine, inhibited uptake of 5-HT
CNC[C@H](O)c1ccc(O)c(O)c1 [epinephrine]			ligand-specificity of [3H]GABA uptake by L-GAB1 cells [1]: not inhibited
NC(CCCP(=O)(O)O)C(=O)O (stereo not shown) [APV, 2-amino-5-phosphonovaleric acid]	without effect		
C[C@H](N)C(=O)O [L-alanine]			ligand-specificity of [3H]GABA uptake by L-GAB1 cells [1]: somewhat sensitive
N[C@H](CCS(=O)(=O)O)C(=O)O [D-homocysteic acid]	without effect		
methyl-glutamylphosphonic acid [MGPA]	without effect		
O=C(O)[C@@H]1CCCN1 [proline]			ligand-specificity of [3H]GABA uptake by L-GAB1 cells [1]: not sensitive
N[C@@H](Cc1ccccc1)C(=O)O [phenylalanine]			ligand-specificity of [3H]GABA uptake by L-GAB1 cells [1]: not sensitive; effect of competing ligand on [3H]-5HT uptake, L-S1 [5, 7]: nor the amino acid substrates for catecholamine synthesis, phenylalanine and tyrosine, inhibited uptake of 5-HT; effect of competing ligand on [3H]-5HT uptake, L-S2 [6, 7]: nor the amino acid substrates for catecholamine synthesis, phenylalanine and tyrosine, inhibited uptake of 5-HT
N[C@@H](CS(=O)O)C(=O)O [L-CSA, L-cysteine sulfinic acid]		potent inhibitory effects	
NCCS(=O)(=O)O [taurine]	only unlabelled L-glutamate seems to mediate some inhibition	slight and not statistically significant	
N[C@@H](CS(=O)(=O)O)C(=O)O [cysteic acid]	only unlabelled L-glutamate seems to mediate some inhibition		
COc1ccc2[nH]cc(CCNC(C)=O)c2c1 [N-Acetyl-5-methoxytryptamine, N-acetyl-5-methoxytryptamine]			IC50 (Rat Synaptosomes): 66 µM
NC(=O)CC[C@H](N)C(=O)O [L-glutamine]		slight and not statistically significant	
COc1ccc2[nH]cc(CCN)c2c1 [5-methoxytryptamine]			IC50 [5]: 3.5 µM; IC50 [6]: 1.5 µM; IC50 (Rat Synaptosomes): 25 µM
CN[C@H](CC(=O)O)C(=O)O [NMDA, N-methyl-D-aspartic acid]	without effect	without effect	
CCOC(=O)CC[C@H](N)C(=O)OCC [DEEG, glutamate diethylester]		without effect	
N[C@@H](CS)C(=O)O [L-cysteine]		slight and not statistically significant	
